The numbers were not newly measured in article PMC9781794, “Polyphosphazene-Based Biomaterials for Biomedical Applications” (International Journal of Molecular Sciences, 2022), which cites them from elsewhere.

The conditions of data set [1]: buffer.
For data set [2], the system named is bacterial species (Gram-positive, Gram-negative, and Mycobacteria). Also on record: method as in PMID 36040292. The settings on record: both Gram-positive and Gram-negative strains; ref [108].

Regarding valine, the “degradation half-life (T1/2)” value in data set [1] was ~ 1 year.
Consider “[N3P3(NHCy)6{Au(PPh3)}2{Ag(PPh3)}](NO3)3 [Sample 13]”, for which, in data set [2], the anti-bacterial activity entry is reported as “excellent” and the anti-bacterial potency range entry was “nanomolar range”.
